± gives the expanded uncertainty stated by the source.
Key:
[1] = 100 kPa, Liquid; for viscosity: Falling or rolling sphere viscometry; for mass density: Vibrating tube method
[2] = xn = mol fraction of the nth substance listed; details: 100 kPa, Liquid; for viscosity: Falling or rolling sphere viscometry; for mass density: Vibrating tube method

CCCCO [butan-1-ol]
[1]
Details	mass density [kg/m3]	viscosity [mPa·s]
293.15 K	809.5 ± 0.82	2.941 ± 0.063
298.15 K	805.7 ± 0.81	2.58 ± 0.055
303.15 K	801.87 ± 0.81	2.274 ± 0.048
308.15 K	798 ± 0.81	2.012 ± 0.043
313.15 K	794.1 ± 0.8	1.787 ± 0.038
318.15 K	790.15 ± 0.8	1.593 ± 0.034
323.15 K	786.16 ± 0.8	1.426 ± 0.03
328.15 K	782.12 ± 0.79	1.28 ± 0.027
333.15 K	778.01 ± 0.79	1.152 ± 0.025

CCCCO [butan-1-ol] + C1CCC(C2CCCCC2)CC1
[2], x2 = 0
Details	mass density [kg/m3]	viscosity [mPa·s]
293.15 K	809.5 ± 0.82	2.941 ± 0.063
298.15 K	805.7 ± 0.81	2.58 ± 0.055
303.15 K	801.87 ± 0.81	2.274 ± 0.048
308.15 K	798 ± 0.81	2.012 ± 0.043
313.15 K	794.1 ± 0.8	1.787 ± 0.038
318.15 K	790.15 ± 0.8	1.593 ± 0.034
323.15 K	786.16 ± 0.8	1.426 ± 0.03
328.15 K	782.12 ± 0.79	1.28 ± 0.027
333.15 K	778.01 ± 0.79	1.152 ± 0.025

CCCCO [butan-1-ol] + CCCCCCCCCCCC
[2], x2 = 0
Details	mass density [kg/m3]	viscosity [mPa·s]
293.15 K	809.5 ± 0.82	2.941 ± 0.063
298.15 K	805.7 ± 0.81	2.58 ± 0.055
303.15 K	801.87 ± 0.81	2.274 ± 0.048
308.15 K	798 ± 0.81	2.012 ± 0.043
313.15 K	794.1 ± 0.8	1.787 ± 0.038
318.15 K	790.15 ± 0.8	1.593 ± 0.034
323.15 K	786.16 ± 0.8	1.426 ± 0.03
328.15 K	782.12 ± 0.79	1.28 ± 0.027
333.15 K	778.01 ± 0.79	1.152 ± 0.025

CCCCCCCCCCCC [dodecane] + C1CCC(C2CCCCC2)CC1
[2], x1 = 1
Details	mass density [kg/m3]	viscosity [mPa·s]
293.15 K	748.83 ± 0.76	1.491 ± 0.032
298.15 K	745.22 ± 0.76	1.366 ± 0.029
303.15 K	741.59 ± 0.75	1.257 ± 0.027
308.15 K	737.95 ± 0.75	1.154 ± 0.025
313.15 K	734.31 ± 0.75	1.076 ± 0.023
318.15 K	730.66 ± 0.74	1.003 ± 0.021
323.15 K	727 ± 0.74	0.936 ± 0.02
328.15 K	723.33 ± 0.74	0.877 ± 0.019
333.15 K	719.65 ± 0.73	0.823 ± 0.018

CCCCCCCCCCCC [dodecane]
[1]
Details	mass density [kg/m3]	viscosity [mPa·s]
293.15 K	748.83 ± 0.76	1.491 ± 0.032
298.15 K	745.22 ± 0.76	1.366 ± 0.029
303.15 K	741.59 ± 0.75	1.257 ± 0.027
308.15 K	737.95 ± 0.75	1.154 ± 0.025
313.15 K	734.31 ± 0.75	1.076 ± 0.023
318.15 K	730.66 ± 0.74	1.003 ± 0.021
323.15 K	727 ± 0.74	0.936 ± 0.02
328.15 K	723.33 ± 0.74	0.877 ± 0.019
333.15 K	719.65 ± 0.73	0.823 ± 0.018

C1CCC(C2CCCCC2)CC1 [1,1'-bicyclohexyl]
[1]
Details	mass density [kg/m3]	viscosity [mPa·s]
293.15 K	886.05 ± 0.89	4.003 ± 0.085
298.15 K	882.44 ± 0.89	3.53 ± 0.075
303.15 K	878.84 ± 0.88	3.137 ± 0.067
308.15 K	875.25 ± 0.88	2.81 ± 0.06
313.15 K	871.66 ± 0.88	2.532 ± 0.054
318.15 K	868.08 ± 0.87	2.296 ± 0.049
323.15 K	864.5 ± 0.87	2.092 ± 0.045
328.15 K	860.93 ± 0.87	1.915 ± 0.041
333.15 K	857.35 ± 0.86	1.762 ± 0.038

From the NIST ThermoML archive (doi:10.1021/acs.jced.8b00438)
